Measured values as given in ChEMBL document CHEMBL1201862, “PubChem BioAssay data set” (2004).
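Step 1: Grow cells in 96-well plates. Step 2: Expose to compound for 48 hours at 5 concentrations. Step 3: Interpolate endpoints linearly; if unreached, use highest concentration. GI50 marks 50% less growth.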 The source made the active and inactive calls. Rule as the data show it: active = GI50 up to about 1.1 µM and inactive = higher.

Tests used:
Assay in all cases: growth of human tumour cells (NCI), 48 h
NCI-H522 = test system: NCI-H522
UACC-62 = test system: UACC-62
SK-MEL-28 = test system: SK-MEL-28
DMS-114 = test system: DMS-114
U-251 = test system: U-251
XF498 = test system: XF498
M19-MEL = test system: M19-MEL
NCI-H226 = test system: NCI-H226
HOP-92 = test system: HOP-92
OVCAR-8 = test system: OVCAR-8
SW-620 = test system: SW-620
DMS-273 = test system: DMS-273
MCF7 = test system: MCF7
NCI/ADR-RES = test system: NCI/ADR-RES
786-0 = test system: 786-0
MDA-N = test system: MDA-N
MDA-MB-231 = test system: MDA-MB-231
MDA-MB-435 = test system: MDA-MB-435
Hs-578T = test system: Hs-578T
T47D = test system: T47D

| SMILES | GI50 (NCI-H522) | GI50 (UACC-62) | GI50 (SK-MEL-28) | GI50 (DMS-114) | GI50 (U-251) | GI50 (XF498) | GI50 (M19-MEL) | GI50 (NCI-H226) | GI50 (HOP-92) | GI50 (OVCAR-8) | GI50 (SW-620) | GI50 (DMS-273) | GI50 (MCF7) | GI50 (NCI/ADR-RES) | GI50 (786-0) | GI50 (MDA-N) | GI50 (MDA-MB-231) | GI50 (MDA-MB-435) | GI50 (Hs-578T) | GI50 (T47D) |
| --- | --- | --- | --- | --- | --- | --- | --- | --- | --- | --- | --- | --- | --- | --- | --- | --- | --- | --- | --- | --- |
| COS(=O)c1cc(Cl)cc(Cl)c1O (configuration not stated) | 18 µM (inactive) | > 100 µM (inactive) | > 100 µM (inactive) | > 100 µM (inactive) | > 100 µM (inactive) | > 100 µM (inactive) | > 100 µM (inactive) | – | – | – | – | – | – | – | – | – | – | – | – | – |
| CSc1nc(NC2OCC(OC(C)=O)C(OC(C)=O)C2OC(C)=O)c(/N=C(\C)C(C)=O)c(=O)[nH]1 (configuration not stated) | – | – | > 100 µM (inactive) | > 100 µM (inactive) | > 100 µM (inactive) | > 100 µM (inactive) | – | 0.164 µM (active) | > 100 µM (inactive) | > 100 µM (inactive) | > 100 µM (inactive) | > 100 µM (inactive) | – | – | – | – | – | – | – | – |
| S=c1sc2c(s1)SC(c1ccccc1)CS2 (configuration not stated) | > 100 µM (inactive) | > 100 µM (inactive) | > 100 µM (inactive) | > 47.9 µM (inactive) | > 100 µM (inactive) | – | > 100 µM (inactive) | > 100 µM (inactive) | > 64.4 µM (inactive) | > 100 µM (inactive) | > 100 µM (inactive) | > 100 µM (inactive) | > 100 µM (inactive) | > 52 µM (inactive) | – | – | – | – | – | – |
| O=S(=O)(C1=CC(S(=O)(=O)c2ccccc2)CN(Cc2ccccc2)C1c1cccc2ccccc12)c1ccccc1 (configuration not stated) | > 69 µM (inactive) | > 69 µM (inactive) | > 69 µM (inactive) | > 69 µM (inactive) | > 69 µM (inactive) | – | > 69 µM (inactive) | 14.6 µM (inactive) | 6.3 µM (inactive) | > 69 µM (inactive) | > 69 µM (inactive) | > 69 µM (inactive) | – | – | > 69 µM (inactive) | – | – | – | – | – |
| O=[N+]([O-])C=C(c1ccc(Cl)cc1)c1ccc(Cl)cc1 | 14.4 µM (inactive) | – | 16.8 µM (inactive) | 15.2 µM (inactive) | 16.1 µM (inactive) | – | – | 16.7 µM (inactive) | – | 17.6 µM (inactive) | 16.2 µM (inactive) | 5.69 µM (inactive) | – | – | 16.5 µM (inactive) | – | – | – | – | – |
| CCC(=C/[C@H](C)C/C=C/C(C)=C/[C@@H](C)C(=O)[C@@H](C)[C@H](O)[C@@H](C)CC)/C=C/[C@H]1CC=CC(=O)O1 [CALLYSTATIN A] | < 0.0012 µM (active) | < 0.0012 µM (active) | < 0.0012 µM (active) | – | < 0.0012 µM (active) | – | – | 0.0168 µM (active) | 0.329 µM (active) | < 0.0012 µM (active) | < 0.0012 µM (active) | – | < 0.0012 µM (active) | < 0.0012 µM (active) | < 0.0012 µM (active) | < 0.0012 µM (active) | < 0.0012 µM (active) | < 0.0012 µM (active) | < 0.0012 µM (active) | < 0.0012 µM (active) |
| COc1ccc2c(C)cc(N/N=C(\C)C=O)nc2c1 | 12.6 µM (inactive) | 12.6 µM (inactive) | 13.7 µM (inactive) | – | 11.4 µM (inactive) | – | – | 10.5 µM (inactive) | 10.5 µM (inactive) | 11.5 µM (inactive) | 7.57 µM (inactive) | – | 8.79 µM (inactive) | 11.7 µM (inactive) | 11.6 µM (inactive) | 10.8 µM (inactive) | 9.33 µM (inactive) | 10.8 µM (inactive) | 15.5 µM (inactive) | 15.5 µM (inactive) |
| O=C(Nc1ccc(Cl)cc1)c1cc2cc(/N=N/c3ccccc3Cl)ccc2oc1=O | 21.7 µM (inactive) | 8.39 µM (inactive) | 15.9 µM (inactive) | 5.81 µM (inactive) | 14.2 µM (inactive) | 24.4 µM (inactive) | 14.3 µM (inactive) | 22.3 µM (inactive) | 18.9 µM (inactive) | 13.4 µM (inactive) | 18.1 µM (inactive) | – | – | – | – | – | – | – | – | – |
| COC(=O)C(C)NP(=O)(N1CC1)N1CC1 (configuration not stated) | > 100 µM (inactive) | 61.8 µM (inactive) | > 100 µM (inactive) | 66.4 µM (inactive) | > 100 µM (inactive) | > 100 µM (inactive) | – | – | – | > 100 µM (inactive) | > 100 µM (inactive) | 91 µM (inactive) | – | – | – | – | – | – | – | – |
